The values below are quoted from earlier work in patent US20080226715A1, “THERAPEUTIC COMPOSITIONS AND METHODS” (priority 2007, published 2008).

The structures appear in SMILES notation.

As a reminder, the bioavailability is the share of a dose that reaches the circulation, judged against a reference dose that is usually intravenous.

For data set [1] the following is noted: in vivo.
For data set [2] the following is noted: after oral dosing; normal subjects.

On to `O=C(O)CCc1nc(-c2ccccc2)c(-c2ccccc2)o1` [Oxaprozin], for which, in data set [1], the bioavailability was 95% and the pharmacokinetics half-life was 42 to 50 h.

With `CC(=O)Nc1ccc(O)cc1` [acetaminophen], the “time of peak plasma concentrations” value in data set [2] is reported as “about 1 hour”.

For the compound `CC(=O)Oc1ccccc1C(=O)O` [aspirin], the “time of peak plasma concentrations” value in data set [2] is on record as “about 1 hour”.
